{"source": "patent US20220218667A1", "about": "“DUAL INHIBITORS OF SOLUBLE EPOXIDE HYDROLASE AND METHODS OF USE THEREOF” (OROX Biosciences, Inc., priority 2019, published 2022)", "key": {"[1]": {"molecular_target": "T1, human sEH (Homo sapiens, UniProt P34913)", "T1 sequence (P34913 1-555)": "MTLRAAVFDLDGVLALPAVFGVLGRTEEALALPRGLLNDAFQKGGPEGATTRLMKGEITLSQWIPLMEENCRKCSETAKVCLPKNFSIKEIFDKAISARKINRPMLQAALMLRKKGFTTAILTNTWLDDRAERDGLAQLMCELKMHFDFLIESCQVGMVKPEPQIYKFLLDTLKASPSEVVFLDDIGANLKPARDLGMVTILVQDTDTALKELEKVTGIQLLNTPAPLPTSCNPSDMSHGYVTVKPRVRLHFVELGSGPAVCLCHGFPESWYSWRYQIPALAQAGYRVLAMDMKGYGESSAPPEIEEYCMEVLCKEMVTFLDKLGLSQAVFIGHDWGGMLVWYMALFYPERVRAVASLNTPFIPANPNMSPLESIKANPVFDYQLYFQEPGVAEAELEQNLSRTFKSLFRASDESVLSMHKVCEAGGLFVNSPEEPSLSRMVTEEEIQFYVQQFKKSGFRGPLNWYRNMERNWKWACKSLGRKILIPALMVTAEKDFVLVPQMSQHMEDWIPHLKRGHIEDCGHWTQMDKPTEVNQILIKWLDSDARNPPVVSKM", "experiment": "sEH inhibition IC50, fluorescent-based assay with purified recombinant sEH", "type": "biochemical", "settings": "in vitro, relative to OX1", "procedure": "sEH inhibition IC50 values for the compounds presented herein can be assayed by a recombinant affinity assay using purified sEHs, from human, mouse or rat, in a fluorescent-based assay. In such an assay, enzymes, e.g., ˜1 nM human sEH, are incubated with a potential inhibitors for 5 min in 25 mM Bis-Tris/HCl buffer (200 μL; pH 7.0) at 30° C. before a substrate, e.g., cyano(2-methoxynaphthalen-6-yl)methyl trans-(3-phenyl-oxyran-2-yl)methyl carbonate, (CMNPC) is added ([S]final=5 μM)."}, "[2]": {"molecular_target": "T2, COX-2 (Homo sapiens, UniProt P35354)", "T2 construct": "purchased Cayman Chemical 700100", "T2 sequence (P35354 18-604)": "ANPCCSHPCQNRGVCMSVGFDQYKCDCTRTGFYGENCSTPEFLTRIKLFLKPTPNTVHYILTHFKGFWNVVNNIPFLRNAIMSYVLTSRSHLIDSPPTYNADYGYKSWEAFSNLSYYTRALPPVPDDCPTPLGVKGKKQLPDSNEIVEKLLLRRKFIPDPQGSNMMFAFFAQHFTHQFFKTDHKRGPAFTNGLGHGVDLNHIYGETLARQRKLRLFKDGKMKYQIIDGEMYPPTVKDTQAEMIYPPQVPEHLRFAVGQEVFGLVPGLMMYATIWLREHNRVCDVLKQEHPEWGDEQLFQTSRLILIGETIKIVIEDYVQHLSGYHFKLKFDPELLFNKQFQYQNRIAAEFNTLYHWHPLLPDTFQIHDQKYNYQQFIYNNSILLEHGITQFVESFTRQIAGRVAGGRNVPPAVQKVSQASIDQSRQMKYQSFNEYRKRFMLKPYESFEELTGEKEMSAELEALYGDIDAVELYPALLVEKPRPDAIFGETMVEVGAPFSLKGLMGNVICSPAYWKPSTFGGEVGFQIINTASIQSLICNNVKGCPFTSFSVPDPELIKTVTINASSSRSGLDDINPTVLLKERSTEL", "experiment": "COX-2 inhibition IC50, COX Fluorescent Inhibitor Screening Assay", "type": "biochemical", "procedure": "A COX Fluorescent Inhibitor Screening Assay Kit (catalog number 700100, Cayman Chemical, Ann Arbor, Mich.) is useful for assaying the ability of the compounds provided herein to inhibit ovine COX-1 and human recombinant COX-2 (% inhibition at 100 μM and IC50 values (M), respectively). Stock solutions of test compounds are dissolved in a minimum volume of DMSO. 10 μl of various concentrations of the test compound solutions, e.g., [I]final between 0.01 and 100 μM, are added to a series of supplied reaction buffer solutions (150 μl, 100 mM Tris-HCl, pH 8.0) with either COX-1 or COX-2 (10 μl) enzyme in the presence of Heme (10 μl) and a fluorometric substrate (10 μl). The reactions are initiated by quickly adding 10 μl of arachidonic acid solution and then incubating the system for two minutes at room temperature. Fluorescence of resorufin, which is produced by the reaction between PGG2 and fluorometric substrate, ADHP (10-acetyl-3,7-dihydroxyphenoxazine), is analyzed with an excitation wavelength of 535 nm and an emission wavelength of 590 nm. The intensity of this fluorescence is proportional to the amount of resorufin, which is proportional to the amount of PGG2 present in the well during the incubation. Percent inhibition is calculated by comparison from the 100% initial activity sample value (no inhibitor)."}, "[3]": {"system": "C57B/L6 mice exposed to bleomycin", "experiment": "Example 1: prophylactic treatment of mice exposed to bleomycin (IPF model)", "type": "in vivo, mouse", "settings": "OX1, OX3, Nintedanib 30 mg/kg QD, Pirfenidone 100 mg/kg BID", "excerpt": "4-(5-phenyl-3-{3-[3-(4-trifluoromethyl-phenyl)-ureido]-propyl}-pyrazol-1-yl)-benzenesulfonamide (PTUPB) [termed OX1] was compared to Pirfenidone, Nintedanib, and GSK225629415 [termed OX3] for treatment of IPF using an established model for IPF treating, which is prophylactic treatment of mice exposed to the chemotherapeutic agent bleomycin. […] Pirfenidone and Nintedanib are standard of care for the treatment of idiopathic pulmonary fibrosis and served as reference compounds in the experiment.\nC57B/L6 mice were used in the experiments. When used, Bleomycin was administered intra-oropharyngeally, 1.5 U/kg, QD per established protocol. The test articles were dosed via oral gavage in 200 μL/day vehicle. The doses and formulations of test articles were selected based on the literature describing the lowest doses capable of eliciting pharmacological action.\nAnimals were dosed with the test articles (or vehicle) starting at day −1 to day 20. On day 1, daily doses of Bleomycin commenced in all but group 1 (negative control) which received the vehicle. On day 21, all animals were weighed and sacrificed. After lungs and bronco-alveolar lavage fluid (BALF) were harvested, they were prepared according to standard procedures for further analysis and histology. All animals were assessed twice a week for body weight and overall appearance. Efficacy endpoints measured in this study included lung weight, total leukocytes, and histology as determined by Mason's Trichrome stain and scored using a modified Ashcroft score.\nThe following parameters were measured in bronchoalveolar fluid (BALF): 1) soluble collagen and 2) differential leukocyte counts for different leukocyte populations.\nAfter weighing and removal of BALF from the lungs, they were inflated and fixed using 10% neutral buffered formalin for histopathology analysis. Fifty-four formalin-fixed lung samples from mice were submitted to HistoTox Labs and were processed routinely. Two slides from each block were sectioned and stained with hematoxylin and eosin (H&E) or Masson's trichrome. Glass slides were evaluated with light microscopy by a board-certified veterinary pathologist. Lung sections were scored according to the modified Ashcroft scale."}, "[4]": {"settings": "day 21, compared to vehicle (Group 2)"}}, "note": "Entries after “also recorded” stand apart in the source; their conditions may differ."}
{"smiles": "CNc1nc(C)nc(N[C@H]2CCC[C@@H](C(=O)NCc3ccc(C#N)cc3C(F)(F)F)C2)n1", "note": "[OX3]", "values": [{"measurement": "fold more potent against sEH than OX1", "setting": "[1]", "value": "roughly 75 fold"}, {"measurement": "IC50", "setting": "[2]", "value": "> 1000", "unit": "nM"}, {"measurement": "times less potent on COX-2 than OX1", "setting": "[2]; in vitro, relative to OX1", "value": "at least 10 times"}, {"measurement": "body weight course over 21 days", "setting": "[3]; bleomycin mice, oral gavage day -1 to 20", "value": "lost the least weight; also recorded: sustained weight loss"}, {"measurement": "neutrophil migration into BALF", "setting": "[3]; day 21, oral", "value": "somewhat effective"}, {"measurement": "number of lymphocytes in BALF", "setting": "[3]; day 21, oral", "value": "trend increasingly lower"}, {"measurement": "number of macrophages in BALF", "setting": "[3]; day 21, oral", "value": "more macrophages"}, {"measurement": "total cell (leukocyte) count in BALF", "setting": "[3]; day 21, oral", "value": "did not demonstrate the same level of reduction"}, {"measurement": "increased collagen (fibrosis) score, trichrome", "setting": "[3]; [4]", "value": "slightly lower"}, {"measurement": "mean Ashcroft score (lung histology)", "setting": "[3]; [4]", "value": "slightly lower"}, {"measurement": "mean score for mixed peribronchiolar/perivascular inflammation", "setting": "[3]; [4]", "value": "lower"}]}
